According to ChEMBL document CHEMBL1122770, “Quantitative structure-activity relationship of insect juvenile hormone mimetic compounds” (J Med Chem, 1984):

test system: not listed separately; assay: Partition coefficient (logP); assay type: physicochemical; details: octanol/water

SMILES | logP
CCC(=O)/C=C(C)/C=C/CC(C)CCCC(C)C (stereo in doubt; 101) | 6.68

same assay, conditions: octanol/water; read-out: logP

SMILES | logP
CCSC(=O)/C=C(C)/C=C/CC(C)CCCC(C)(C)O (stereo unspecified) | 5.89
CCOC(=O)/C=C(C)/C=C/CC(C)CCCC(C)(C)O (stereo unspecified) | 4.65
CCCOC(=O)/C=C(C)/C=C/CC(C)CCCC(C)C (stereo unspecified) | 7.28
CCNC(=O)OC(C)(C)CCCC(C)C/C=C/C(C)=C/C(=O)OCC (stereo unspecified) | 5.65
CCNC(=O)/C=C(C)/C=C/CC(C)CCC=C(C)C (stereo unspecified) | 4.69
COC(C)(C)CCCC(C)C/C=C/C(C)=C/C(=O)SC(C)C (stereo unspecified) | 7.19
C/C=C/COC(=O)/C=C(C)/C=C/CC(C)CCCC(C)(C)OC (stereo unspecified) | 6.07
CCOC(=O)/C=C(C)/C=C/CC(C)CCC(=O)C(C)C (stereo unspecified) | 4.3
CCC(=O)/C=C(C)/C=C/CC(C)CCCC(C)(C)O (stereo unspecified) | 4.18
CCC(C)OC(=O)/C=C(C)/C=C/CC(C)CCCC(C)(C)OC (stereo unspecified) | 6.49
CCOC(=O)/C=C(C)/C=C/CC(C)CCCC(C)(C)Cl (stereo unspecified) | 6.44
C#CCOC(=O)/C=C(C)/C=C/CC(C)CCCC(C)(C)OC (stereo unspecified) | 4.66
CC(/C=C/CC(C)CCCC(C)C)=C\C(=O)OCc1ccccc1 (stereo unspecified) | 7.87
CCOC(=O)/C=C(C)/C=C/CC(C)CCC1OC1(C)C (stereo unspecified) | 4.76
CCNC(=O)/C=C(C)/C=C/CC(C)CCCC(C)(C)O (stereo unspecified) | 3.15
COC(C)(C)CCCC(C)C/C=C/C(C)=C/C(=O)N(C)C (stereo unspecified) | 3.74

SMILES | logP
C#CCCOC(=O)/C=C(C)/C=C/CC(C)CCCC(C)(C)OC (stereo unspecified) | 5.2
COC(C)(C)CCCC(C)C/C=C/C(C)=C/C(=O)OC1CCC1 (stereo unspecified) | 6.44
CC(/C=C/CC(C)CCCC(C)C)=C\C(=O)CC(C)C (stereo unspecified) | 7.22
CCOC(=O)/C=C(C)/C=C/CC(C)CCC(SCC)C(C)C (stereo unspecified) | 6.9
CC(/C=C/CC(C)CCCC(C)C)=C\C(=O)O (stereo unspecified) | 5.95
COC(C)(C)CCCC(C)C/C=C/C(C)=C/C(=O)NC(C)C (stereo unspecified) | 4.45
CCN(CC)C(=O)/C=C(C)/C=C/CC(C)CCC=C(C)C (stereo unspecified) | 5.47
CCN(CC)C(=O)/C=C(C)/C=C/CC(C)CCCC(C)C (stereo unspecified) | 6.02
COC(CCC(C)C/C=C/C(C)=C/C(=O)OC(C)C)C(C)(C)OC (stereo unspecified) | 4.75
CC(/C=C/CC(C)CCCC(C)C)=C\C(=O)OC(C)(C)C (stereo unspecified) | 7.56
CCOC(=O)/C=C(C)/C=C/CC(C)CCC(O)C(C)C (stereo unspecified) | 4.65
CCNC(=O)/C=C(C)/C=C/CC(C)CCCC(C)(C)OC (stereo unspecified) | 4.04
CCOC(=O)/C=C(C)/C=C/CC(C)CCCC(C)(C)OC (stereo unspecified) | 5.54
CCCC(=O)/C=C(C)/C=C/CC(C)CCCC(C)(C)OC (stereo unspecified) | 5.61
CCC(=O)/C=C(C)/C=C/CC(C)CCCC(C)C (stereo in doubt; 83) | 6.27

test system: Tenebrio molitor; assay: Tested for juvenile hormone mimetic activity in Tenebrio molitor (yellow mealworm) excluding from the analysis for activity against Tenebrio molitor; assay type: functional; set-up: unit not given here; details: not given

SMILES | pI50
CCNC(=O)OC(C)(C)CCCC(C)C/C=C/C(C)=C/C(=O)OCC (stereo unspecified) | <0.55
CCOC(=O)/C=C(C)/C=C/CC(C)CCC(=O)C(C)C (stereo unspecified) | <0.45
CCC(=O)/C=C(C)/C=C/CC(C)CCCC(C)(C)O (stereo unspecified) | 6.04
CC(/C=C/CC(C)CCCC(C)C)=C\C(=O)OCc1ccccc1 (stereo unspecified) | <0.52
C#CCCOC(=O)/C=C(C)/C=C/CC(C)CCCC(C)(C)OC (stereo unspecified) | <1.11
CCOC(=O)/C=C(C)/C=C/CC(C)CCC(SCC)C(C)C (stereo unspecified) | 1.51
CC(/C=C/CC(C)CCCC(C)C)=C\C(=O)O (stereo unspecified) | <0.45
CCOC(=O)/C=C(C)/C=C/CC(C)CCC(O)C(C)C (stereo unspecified) | <0.45
CCNC(=O)/C=C(C)/C=C/CC(C)CCCC(C)(C)OC (stereo unspecified) | 5.95

test system: Tenebrio molitor; assay: Tested for juvenile hormone mimetic activity in Tenebrio molitor (yellow mealworm) excluding from the analysis for activity against Aedes aegypti, Tenebrio molitor; details: not given

SMILES | pI50 [uM pupa-1]
CC(/C=C/CC(C)CCCC(C)C)=C\C(=O)C1N=N1 (stereo unspecified) | 5.15
CC(/C=C/CC(C)CCCC(C)C)=C\C(=O)OC(C)(C)C (stereo unspecified) | 1.01
COC(C)(C)CCCC(C)C/C=C/C(C)=C/C(=O)C1N=N1 (stereo unspecified) | 6.12

test system: Tenebrio molitor; assay: Juvenile hormone mimetic activity in Tenebrio molitor (yellow mealworm); assay type: functional; set-up: unit not given here; details: not given

SMILES | pI50
CCSC(=O)/C=C(C)/C=C/CC(C)CCCC(C)(C)O (stereo unspecified) | 3.43
CCCOC(=O)/C=C(C)/C=C/CC(C)CCCC(C)C (stereo unspecified) | 2.71
CCNC(=O)/C=C(C)/C=C/CC(C)CCC=C(C)C (stereo unspecified) | 4.78
COC(C)(C)CCCC(C)C/C=C/C(C)=C/C(=O)SC(C)C (stereo unspecified) | 5.04
C/C=C/COC(=O)/C=C(C)/C=C/CC(C)CCCC(C)(C)OC (stereo unspecified) | 2.25
CCC(C)OC(=O)/C=C(C)/C=C/CC(C)CCCC(C)(C)OC (stereo unspecified) | 4.67
CCOC(=O)/C=C(C)/C=C/CC(C)CCCC(C)(C)Cl (stereo unspecified) | 3.5
C#CCOC(=O)/C=C(C)/C=C/CC(C)CCCC(C)(C)OC (stereo unspecified) | 1.34
CCOC(=O)/C=C(C)/C=C/CC(C)CCC1OC1(C)C (stereo unspecified) | 2.22
COC(C)(C)CCCC(C)C/C=C/C(C)=C/C(=O)N(C)C (stereo unspecified) | 3.8
COC(C)(C)CCCC(C)C/C=C/C(C)=C/C(=O)OC1CCC1 (stereo unspecified) | 2.79
CC(/C=C/CC(C)CCCC(C)C)=C\C(=O)CC(C)C (stereo unspecified) | 3.14
COC(C)(C)CCCC(C)C/C=C/C(C)=C/C(=O)NC(C)C (stereo unspecified) | 4.21
CCN(CC)C(=O)/C=C(C)/C=C/CC(C)CCC=C(C)C (stereo unspecified) | 1.7
CCN(CC)C(=O)/C=C(C)/C=C/CC(C)CCCC(C)C (stereo unspecified) | 4.63
COC(CCC(C)C/C=C/C(C)=C/C(=O)OC(C)C)C(C)(C)OC (stereo unspecified) | 3.88
CCOC(=O)/C=C(C)/C=C/CC(C)CCCC(C)(C)OC (stereo unspecified) | 1.92
CCCC(=O)/C=C(C)/C=C/CC(C)CCCC(C)(C)OC (stereo unspecified) | 5.73
CCC(=O)/C=C(C)/C=C/CC(C)CCCC(C)C (stereo in doubt; 83) | 4.89
CCC(=O)/C=C(C)/C=C/CC(C)CCCC(C)C (stereo in doubt; 101) | 4.1

test system: Tenebrio molitor; assay: Tested for juvenile hormone mimetic activity in Tenebrio molitor (yellow mealworm) excluding from the analysis for activity against […]); assay type: functional; details: not given

SMILES | pI50 [uM pupa-1]
CCOC(=O)/C=C(C)/C=C/CC(C)CCCC(C)(C)O (stereo unspecified) | ~0.54

test system: Tenebrio molitor; assay: Tested for juvenile hormone mimetic activity in Tenebrio molitor (yellow mealworm) excluding from the analysis for activity against Anopheles aegypti; assay type: functional; details: not given

SMILES | pI50 [uM pupa-1]
CCNC(=O)/C=C(C)/C=C/CC(C)CCCC(C)(C)O (stereo unspecified) | 5.22
